This is an account of results in ChEMBL document CHEMBL1201862, “PubChem BioAssay data set” (2004).

SMILES strings stand for the structures.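 A five-concentration, 48-hour dose response in 96-well plates underlies each endpoint, interpolated linearly between surrounding concentrations. GI50 = concentration required for 50% inhibition of growth.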 The source made the active and inactive calls. Cut-off read from the data, not from the text of the source: active = GI50 up to about 1.1 µM and inactive = higher.

Assay in all cases: NCI-60 cell line screen, 48 h
Experiment [1] deals with 786-0.
The test system of experiment [2] is CCRF-CEM.
In experiment [3] the test system is COLO 205.
Experiment [4] relates to HCT-15.
The subject of experiment [5] is HOP-62.
The subject of experiment [6] is KM12.
In experiment [7] the test system is NCI-H522.
In experiment [8] the test system is OVCAR-4.
Experiment [9] concerns OVCAR-5.
Experiment [10] has as its system RPMI-8226.
Experiment [11] relates to SF-268.
Experiment [12] deals with SK-MEL-28.
In experiment [13] the test system is SK-MEL-2.
For experiment [14], the system named is SN12C.
For experiment [15], the system named is TK-10.
The subject of experiment [16] is U-251.
The test system of experiment [17] is UO-31.
Experiment [18] has as its system HOP-92.
Experiment [19] relates to SK-OV-3.

Regarding `Cc1ccc(S(=O)(=O)c2ccc(C)cc2[N+](=O)[O-])c([N+](=O)[O-])c1`, the GI50 in experiment [1] is > 100 µM (inactive); in [2] it was > 100 µM (inactive); in experiment [3], > 100 µM (inactive); in experiment [4], over 100 µM; in experiment [5], > 100 µM (inactive); in experiment [6] it was > 100 µM (inactive). In addition, the GI50 in [7] was > 100 µM (inactive); in experiment [8] it was 89.9 µM (inactive); in experiment [9] it was > 100 µM (inactive); in experiment [10], > 100 µM (inactive); in experiment [11], > 100 µM (inactive); in experiment [12], > 100 µM (inactive). Besides, the GI50 in experiment [13], in experiment [14], in experiment [15], in experiment [16] and in [17] was > 100 µM (inactive) in each case.
`Cc1ccc(S(=O)(=O)N(/N=C(\N)Oc2ccc(Cl)cc2)C(=N)Oc2ccc(Cl)cc2)cc1`: the GI50 was > 100 µM (inactive) in experiment [1]; > 100 µM (inactive) in experiment [2]; > 100 µM (inactive) in [3]; over 100 µM in [4]; > 100 µM (inactive) in experiment [5]; > 100 µM (inactive) in experiment [18]. Besides, the GI50 in experiment [6], in experiment [7], in experiment [8], in experiment [9], in experiment [11] and in [12] was > 100 µM (inactive) each time. The GI50 in experiment [13], in [19], in experiment [14], in experiment [15], in experiment [16] and in experiment [17] was > 100 µM (inactive) throughout.
Consider `COc1cc(C2C3=C(CCCC3=O)N(c3ccc(C)cc3)C3=C2C(=O)CCC3)c([N+](=O)[O-])cc1OC`, for which the GI50 was 63.1 µM (inactive) in experiment [1]; 40.7 µM (inactive) in experiment [2]; 68.1 µM in [4]; 52 µM (inactive) in [18]; > 100 µM (inactive) in experiment [6]; 45.4 µM (inactive) in experiment [8]. The GI50 is > 100 µM (inactive) in experiment [9]; 57.3 µM (inactive) in [10]; 97.5 µM (inactive) in experiment [11]; 87.3 µM (inactive) in [12]; > 100 µM (inactive) in experiment [19]; > 100 µM (inactive) in experiment [14]. For the same molecule, the results for the GI50 in experiment [15], in experiment [16] and in experiment [17] were > 100 µM (inactive), 42 µM (inactive) and > 100 µM (inactive), respectively.
On to `[O-][S+]1CSSC1`, for which the GI50 in [1] is 20.7 µM (inactive); in experiment [2] it was 4.42 µM (inactive); in experiment [3] it was 17.1 µM (inactive); in experiment [5], 36.3 µM (inactive); in experiment [18] it was 26.1 µM (inactive); in [6], 13.9 µM (inactive). For the same molecule, the GI50 is 11.4 µM (inactive) in experiment [7]; 16.7 µM (inactive) in experiment [8]; 16.8 µM (inactive) in experiment [9]; 26.2 µM (inactive) in [11]; 27.4 µM (inactive) in experiment [12]; 15.6 µM (inactive) in experiment [13]. For the same molecule, the GI50 is 24.3 µM (inactive) in experiment [19]; 12 µM (inactive) in [14]; 23.7 µM (inactive) in [15]; 18.7 µM (inactive) in experiment [16]; 18.7 µM (inactive) in [17].
Regarding `CC(=O)O[C@]12CCCCC1C1(O)C(O)CCCCC12` (some centres not stated), the GI50 is > 100 µM (inactive) in experiment [1]; > 100 µM (inactive) in experiment [2]; > 100 µM (inactive) in [3]; over 100 µM in experiment [4]; > 100 µM (inactive) in experiment [5]; > 100 µM (inactive) in [6]. In addition, the GI50 in [7], in experiment [8], in experiment [10], in experiment [11], in [12] and in experiment [13] was > 100 µM (inactive) throughout. The GI50 in [19], in experiment [14], in experiment [15], in [16] and in experiment [17] was > 100 µM (inactive) in each case.
In the case of `COc1cc(C2C(Cl)C(=O)N2n2cnc3ccccc3c2=O)ccc1O` (configuration not stated), the GI50 in experiment [1] is > 100 µM (inactive); in experiment [2], 80 µM (inactive); in [3], > 100 µM (inactive); in [4], 87.3 µM; in experiment [5], > 100 µM (inactive); in [6], > 100 µM (inactive). The GI50 in experiment [7] is 34 µM (inactive); in experiment [8], 94.4 µM (inactive); in experiment [9], > 100 µM (inactive); in experiment [10], 60 µM (inactive); in [11] it was 76.4 µM (inactive); in [12], 88.7 µM (inactive). Also, the GI50 in experiment [13] is > 100 µM (inactive); in [19] it was 68.9 µM (inactive); in experiment [14], 89.5 µM (inactive); in experiment [15] it was > 100 µM (inactive); in experiment [16], 73.1 µM (inactive); in [17] it was 56.4 µM (inactive).
With `COc1cc(N(Cc2ccc3nc(OC)c(OC)nc3c2)Cc2ccc3nc(OC)c(OC)nc3c2)cc(OC)c1OC`, the GI50 is 16.3 µM (inactive) in experiment [1]; > 50 µM (inactive) in [3]; over 50 µM in experiment [4]; 1.3 µM (inactive) in experiment [5]; > 50 µM (inactive) in experiment [6]; > 50 µM (inactive) in experiment [7]. For the same molecule, the GI50 in [8] is > 50 µM (inactive); in experiment [9] it was > 50 µM (inactive); in experiment [10], > 50 µM (inactive); in experiment [11] it was 32.1 µM (inactive); in experiment [12] it was > 50 µM (inactive); in [13], 20.9 µM (inactive). The GI50 in experiment [19] is 29.1 µM (inactive); in [14] it was > 50 µM (inactive); in experiment [15], 30.8 µM (inactive); in experiment [16] it was 19.8 µM (inactive); in [17], 31.5 µM (inactive).
With `C#CCN(Cc1ccc2nc(-c3ccccc3)c(N)nc2c1)c1cc(OC)c(OC)c(OC)c1`, the GI50 was 44.7 µM (inactive) in experiment [1]; 17.9 µM (inactive) in experiment [2]; 21.2 µM (inactive) in experiment [3]; 31.9 µM in [4]; 39.2 µM (inactive) in experiment [5]; > 10 µM (inactive) in [6]. Further, the GI50 in experiment [7] was 20.9 µM (inactive); in experiment [8], 27.9 µM (inactive); in experiment [9], 48.5 µM (inactive); in experiment [10], 11.2 µM (inactive); in experiment [11] it was 40.7 µM (inactive); in experiment [12], 37.1 µM (inactive). In addition, the GI50 in experiment [13] is 23.1 µM (inactive); in [14], 32.1 µM (inactive); in [15], 46.1 µM (inactive); in [16], 37 µM (inactive); in experiment [17], 23.1 µM (inactive).
On to `Cc1cc(C)cc(NC(=O)CCC(=O)C2CCC/C2=N\NC(=O)C(=O)NN)c1` (configuration not stated), for which the GI50 in experiment [1] is > 100 µM (inactive); in [2] it was > 100 µM (inactive); in experiment [3], > 100 µM (inactive); in experiment [4], over 100 µM; in experiment [6] it was > 100 µM (inactive); in experiment [8], > 100 µM (inactive). In addition, the GI50 in experiment [9], in experiment [10], in experiment [11], in [12], in experiment [13] and in [19] was > 100 µM (inactive) in each case. Besides, the GI50 in [14], in [15], in experiment [16] and in experiment [17] was > 100 µM (inactive) throughout.
